According to patent publication US4242350A, “Antisecretory thiadiazole derivatives, processes for their manufacture and pharmaceutical compositions containing them” (Imperial Chemical Industries Limited, priority 1978, dated 1980):

Tests used:
oral toxicity in rodents = assay type: in vivo; details: dosed orally to rodents at 300 mg/kg
oral tolerance in dogs = assay type: in vivo; details: dogs dosed orally with 100 mg./kg.
Text: No overt toxicity or side effects were noted during the dog tests.

SMILES: CNC(=NC#N)NCCSCc1nsc(NC(=N)N)n1 [3-[2-(2-cyano-3-methylguanidino)ethylthiomethyl]-5-guanidino-1,2,4-thiadiazole]
- toxicity (oral toxicity in rodents): no toxicity
- tolerance (oral tolerance in dogs): well tolerated
